# Literature values as cited in PMC3780389 (Experimental neurology, 2012).
# Tests used:
# hAPP Tg AD mice = settings: chronic administration, ref Ricobaraza, et al., 2011
# [1] = tested on: APP23 transgenic mouse model of AD; settings: ref Qing, et al., 2008
# 3x-Tg AD mice = settings: ref Green, et al., 2008, Hempen and Brion, 1996
compound,measurement,setting,value
sodium 4-phenylbutyrate [sodium 4-phenylbutyrate (4-PBA)],Aβ levels,hAPP Tg AD mice,decreased Aβ levels
CCCC(CCC)C(=O)O [Valproic acid],Aβ plaque number,[1],significantly reduce Aβ plaque number
NC(=O)c1cccnc1 [nicotinamide],Thr231-phosphotau,3x-Tg AD mice,selectively decreases
same,level of acetylated α-tubulin,3x-Tg AD mice,increases
